Source: paper PMC5861220, “The Cytochrome P450-Mediated Metabolism Alternation of Four Effective Lignans From Schisandra chinensis in Carbon Tetrachloride-Intoxicated Rats and Patients With Advanced Hepatocellular Carcinoma” (Frontiers in Pharmacology, 2018)
Like-named read-outs stand apart in the source and are kept apart here.

Columns and labels:
Caco-2 cell monolayer = test: Transport across Caco-2 cell monolayer; assay type: in vitro ADME; settings: for ER: ER = Papp (BL → AP)/Papp(AP → BL)
Experimental: (§1) Caco-2 cell (passage 38) was used in the transport experiments. Cells were seeded on polycarbonate filters (12 mm diameter, pore size […]) at 1 × 10^5/cm^2. The cell monolayer was formed 21 days post seeding when the transepithelial electrical resistance (TEER) was above 1,000 Ω• cm^2. Three concentration levels (5, 10, and 50 μM) were set for the four schisandra lignans in the study. After preincubation for 1 h at 37°C, the solution of the four lignans was respectively added to the apical (0.4 mL) or basolateral (0.6 mL) chamber for absorptive (AP → BL) and secretive (BL → AP) permeability test. At the specified timepoints (0.5, 1, 1.5 and 2 h), 50 μL samples (n = 3) were withdrawn from receiver chamber, and meanwhile, 50 μL fresh buffer was added. The four lignans were determined by HPLC-MS method.
(§2) The efflux rate (ER) was calculated by the formula ER = Papp (BL → AP)/Papp(AP → BL).

[1] = system: rat intestine (jejunum segment); test: In situ intestinal perfusion of four lignans; assay type: in vivo; settings: for Perfusate (Percent of the initial dose) / Plasma (Percent of the initial dose) / Intestine (Percent of the initial dose) / Pblood / Plumen: 50 μM, n = 3; for Perfusate (Percent of the initial dose): intestinal perfusion 60 min; for Plasma (Percent of the initial dose) / Intestine (Percent of the initial dose): intestinal perfusion; for Plasma (Percent of the initial dose): mesenteric vein blood; for Increase of remaining amount in perfusate: intestinal autoperfusion (60 min), CCl4-treated rats vs control
Experimental: The surgical procedures of intestinal perfusion were conducted according to those published reports (Savina et al., [1981]). Hank's balanced salt solution (HBSS, pH 7.4) with four schisandra lignans (50 μM) at 37°C was infused into the jejunum segment at rate of 0.3 mL/min. Phenol Red (50 μM) was added to serve as a nonabsorbable marker for measuring water flux. Blood samples from mesenteric vein and perfusate were collected at 5-min interval. The plasma separated by centrifugation and perfusate was stored at −20°C until HPLC-MS analysis.
The permeability of four lignans across the rat intestine was calculated based on the disappearance of parent drug from the lumen (Plumen) as well as the appearance of the drug in blood (Pblood) using the following equations (Singhal et al., [1998]):
(1) Plumen = −Q/2πrlLnCout/Cin
(1) Pblood = ΔMB/Δt/2πrl{C}
where r is the radius of the perfused intestinal lumen; l is the length of the segment; Q is the flow rate of perfusate; Cin is the concentration of drug at the start of perfusion; and Cout is the steady-state concentration of drug exiting the lumen. ΔMB/Δt is the rate of drug appearance in mesenteric blood; and {C} is the logarithmic mean concentration of drug in the lumen.

rat liver = test: In situ hepatic perfusion of four lignans; assay type: in vivo; settings: 10 μM, n = 3; for Total amount of analyte in bile / Total amount of analyte in liver: hepatic perfusion 60 min; for AUC: perfusate AUC(0−1h)
Experimental: (§3) In situ liver perfusion was performed similarly as the method described previously (Uraki et al., [2016]). […] The perfusate consisted of Krebs–Hensleit buffer (pH 7.4) containing sodium taurocholate (4.75 mg/L), 1% bovine serum albumin, and glucose (1.2 g/L) was oxygenated using carbogen, 95% O2/5% CO2. The perfusate at 37°C was infused into the portal vein at a flow rate of 30 mL/min in a recirculatory manner. After 10-min equilibration, four schisandra lignans were added to the reservoir (final concentration of 10 μM). Perfusate (0.5 mL) and bile samples were collected at 0, 10, 20, 30, 40, 50, and 60 min after the addition of lignans. The same volume of blank perfusion buffer was immediately added to the reservoir after collection of the perfusate samples. After hepatic perfusion, rat was sacrificed and liver was removed, blotted dry, and weighed.

[2] = Pharmacokinetics of four lignans in rats after oral SC alcoholic extract; assay type: in vivo, rat; settings: for Reduction of systemic clearance (CLz/F): CCl4 intoxicated rats vs control rats; for CL/F: read-out: CLz/F (converted); for MRT last: read-out: MRT(0−t)
Experimental: The pharmacokinetic profiles of four lignans were studied in ALI rat after multiple oral administrations of SC alcoholic extract at dose of 1.5 g/kg/day. After the ALI rat was established, SC alcoholic extract suspended in 0.5% sodium carboxymethyl cellulose was given to ALI rats and the control via oral gavage once a day for 4 consecutive days. Before the last dosing, rats were fasted for 12 h while water was taken freely. Blood samples were collected at 0, 0.25, 0.5, 1, 2, 3, 4, 6, 8, 12, 24, 36, and 48 h after the last dosing. A cannula was surgically placed into the jugular vein for collection of blood samples (about 0.1 mL) and blood loss compensation using sterile isotonic saline in the pharmacokinetic study. Plasma was separated by centrifugation and stored at −20°C until analysis. Plasma concentrations of the four lignans were quantified using HPLC-MS analysis developed according to the reported method (Wang et al., [2008]).
Data fitting and pharmacokinetic parameter calculations were carried out using the Winnolin software. Non-compartmental analysis was used to calculate the pharmacokinetic parameters. Parameters, such as AUC and MRT, were calculated using statistical moment method.

[3] = Identification of CYP450 isozymes in lignan metabolism, rat liver microsomes (no inhibitor / overall); assay type: in vitro ADME; settings: rat, 5 μM, pH 7.4
Experimental: (§4) The CYP450s involved in the metabolism of schisandrin, schisantherin A, deoxyshisandrin and γ-schisandrin in rat or human liver microsomes were confirmed by comparison of the metabolism ratio before and after the addition of selective inhibitors to CYP450 isozymes. […] The supernate was injected to HPLC-MS for analysis of the four lignans.

[4] = Transport across Caco-2 cell monolayer; assay type: in vitro ADME; settings: human, Caco-2
Experimental: as §1, §2

[5] = Identification of CYP450 isozymes in lignan metabolism, human liver microsomes (no inhibitor); assay type: in vitro ADME; settings: human, 5 μM, pH 7.4
Experimental: as §4

[6] = In situ hepatic perfusion of four lignans; assay type: in vivo, rat; settings: Sprague-Dawley, rat, perfusate, perfusate AUC(0−1h), n = 3
Experimental: as §3

[7] = CCl4-intoxicated rats, oral SC alcoholic extract 1.5 g/kg/day for 4 days, plasma, n = 5
[8] = Control (normal) rats, oral SC alcoholic extract 1.5 g/kg/day for 4 days, plasma, n = 5
[9] = Sprague-Dawley, rat, plasma, po, 1.5 g/kg/day, CCl4-intoxicated rats, oral SC alcoholic extract 1.5 g/kg/day for 4 days, n = 5
[10] = Sprague-Dawley, rat, plasma, po, 1.5 g/kg/day, CCl4-intoxicated rats, oral SC alcoholic extract 1.5 g/kg/day for 4 days, plasma, n = 5
[11] = Sprague-Dawley, rat, plasma, po, 1.5 g/kg/day, Control (normal) rats, oral SC alcoholic extract 1.5 g/kg/day for 4 days, n = 5
[12] = Sprague-Dawley, rat, plasma, po, 1.5 g/kg/day, Control (normal) rats, oral SC alcoholic extract 1.5 g/kg/day for 4 days, plasma, n = 5

schisantherin A
Papp(AP−BL) (Caco-2 cell monolayer; 5 μM): 1.33 ± 0.12 × 10^−6 cm/s | Papp(BL−AP) (Caco-2 cell monolayer; 5 μM): 1.52 ± 0.26 × 10^−6 cm/s | ER (Caco-2 cell monolayer; 5 μM): 1.14 | Papp(AP−BL) (Caco-2 cell monolayer; 10 μM): 1.81 ± 0.35 × 10^−6 cm/s | Papp(BL−AP) (Caco-2 cell monolayer; 10 μM): 2.28 ± 0.47 × 10^−6 cm/s | ER (Caco-2 cell monolayer; 10 μM): 1.26 | Papp(AP−BL) (Caco-2 cell monolayer; 50 μM): 1.43 ± 0.35 × 10^−6 cm/s | Papp(BL−AP) (Caco-2 cell monolayer; 50 μM): 1.28 ± 0.24 × 10^−6 cm/s | ER (Caco-2 cell monolayer; 50 μM): 0.89 | Perfusate (Percent of the initial dose) ([1]; CCl4-intoxicated rats): 92.85 ± 1.33% of the initial dose | Plasma (Percent of the initial dose) ([1]; CCl4-intoxicated rats): 0.82 ± 0.04% of the initial dose | Intestine (Percent of the initial dose) ([1]; CCl4-intoxicated rats): 1.95 ± 0.36% of the initial dose | Pblood ([1]; CCl4-intoxicated rats): 0.060 ± 0.016 × 10^−4 cm/s | Plumen ([1]; CCl4-intoxicated rats): 2.047 ± 0.373 × 10^−4 cm/s | Perfusate (Percent of the initial dose) ([1]; Control rats): 92.47 ± 1.06% of the initial dose | Plasma (Percent of the initial dose) ([1]; Control rats): 0.80 ± 0.07% of the initial dose | Intestine (Percent of the initial dose) ([1]; Control rats): 1.65 ± 0.37% of the initial dose | Pblood ([1]; Control rats): 0.047 ± 0.006 × 10^−4 cm/s | Plumen ([1]; Control rats): 2.303 ± 0.163 × 10^−4 cm/s | Increase of remaining amount in perfusate [1]: not changed | Total amount of analyte in bile (rat liver; CCl4-intoxicated rats): 1.61 ± 0.34 µg | Total amount of analyte in liver (rat liver; CCl4-intoxicated rats): 17.15 ± 1.84 µg | AUC (rat liver; CCl4-intoxicated rats): 4790 ± 30 ng·h/mL | Total amount of analyte in bile (rat liver; Control rats): 1.48 ± 0.23 µg | Total amount of analyte in liver (rat liver; Control rats): 12.36 ± 1.65 µg | AUC (rat liver; Control rats): 4080 ± 140 ng·h/mL | AUC(0−t) [2, 7]: 99600 ± 45600 ng·h/mL | CLz/F [2, 7]: 3900.8 ± 1929 mL/min/kg | Cmax [2, 7]: 3190 ± 1160 ng/mL | MRT(0−t) [2, 7]: 19.84 ± 1.18 h | Tmax [2, 7]: 9.60 ± 3.29 h | t1/2 [2, 7]: 17.65 ± 3.32 h | Reduction of systemic clearance (CLz/F) [2]: ~89% | AUC(0−t) [2, 8]: 11300 ± 3870 ng·h/mL | Cmax [2, 8]: 569 ± 163 ng/mL | MRT(0−t) [2, 8]: 15.42 ± 0.29 h | Tmax [2, 8]: 5.00 ± 1.41 h | t1/2 [2, 8]: 12.39 ± 2.12 h

COc1cc2c(c(OC)c1OC)-c1c(cc3c(c1OC)OCO3)C[C@H](C)[C@H](C)C2 [γ-Schisandrin, γ-schisandrin]
Metabolism rate [3]: 79.6 ± 6.5 nmol/min/mg | Papp A→B at 2 h, 5 μM ([4]; 5 μM): 1.17 ± 0.16 ×10⁻⁶ cm/s | Papp B→A at 2 h, 5 μM ([4]; 5 μM): 1.32 ± 0.14 ×10⁻⁶ cm/s | efflux ratio at 2 h, 5 μM ([4]; 5 μM, ER = Papp (BL → AP)/Papp(AP → BL)): 1.13 | Papp A→B at 2 h, 10 μM ([4]; 10 μM): 1.18 ± 0.09 ×10⁻⁶ cm/s | Papp B→A at 2 h, 10 μM ([4]; 10 μM): 1.34 ± 0.11 ×10⁻⁶ cm/s | efflux ratio at 2 h, 10 μM ([4]; 10 μM, ER = Papp (BL → AP)/Papp(AP → BL)): 1.14 | Papp A→B at 2 h, 50 μM ([4]; 50 μM): 1.22 ± 0.16 ×10⁻⁶ cm/s | Papp B→A at 2 h, 50 μM ([4]; 50 μM): 1.32 ± 0.2 ×10⁻⁶ cm/s | efflux ratio at 2 h, 50 μM ([4]; 50 μM, ER = Papp (BL → AP)/Papp(AP → BL)): 1.08 | Perfusate (Percent of the initial dose) ([1]; CCl4-intoxicated rats): 91.92 ± 1.69% of the initial dose | Plasma (Percent of the initial dose) ([1]; CCl4-intoxicated rats): 0.82 ± 0.06% of the initial dose | Intestine (Percent of the initial dose) ([1]; CCl4-intoxicated rats): 1.87 ± 0.20% of the initial dose | Pblood ([1]; CCl4-intoxicated rats): 0.066 ± 0.018 × 10^−4 cm/s | Plumen ([1]; CCl4-intoxicated rats): 2.540 ± 0.423 × 10^−4 cm/s | Perfusate (Percent of the initial dose) ([1]; Control rats): 92.57 ± 1.67% of the initial dose | Plasma (Percent of the initial dose) ([1]; Control rats): 0.84 ± 0.09% of the initial dose | Intestine (Percent of the initial dose) ([1]; Control rats): 1.66 ± 0.27% of the initial dose | Pblood ([1]; Control rats): 0.052 ± 0.009 × 10^−4 cm/s | Plumen ([1]; Control rats): 2.543 ± 0.174 × 10^−4 cm/s | Increase of remaining amount in perfusate [1]: not changed | Metabolism rate [5]: 194.1 ± 12.9 nmol/min/mg | Total amount of analyte in bile (rat liver; CCl4-intoxicated rats): 1.19 ± 0.28 µg | Total amount of analyte in liver (rat liver; CCl4-intoxicated rats): 14.25 ± 1.36 µg | Total amount of analyte in bile (rat liver; Control rats): 1.37 ± 0.14 µg | Total amount of analyte in liver (rat liver; Control rats): 11.10 ± 1.31 µg | AUC at 10 μM ([6]; pH 7.4, CCl4-intoxicated rats): 3740 ± 70 ng·h/mL | AUC at 10 μM ([6]; pH 7.4, Control rats): 3190 ± 70 ng·h/mL | Reduction of systemic clearance (CLz/F) [2]: ~54% | AUC(0-t) [2, 9]: 11600 ± 3090 ng·h/mL | Cmax [2, 9]: 628 ± 164 ng/mL | half-life [2, 9]: 14.5 ± 5.05 h | CL/F [2, 10]: 25.2 mL/min/kg | MRT last [2, 10]: 15.9 ± 1.24 h | Tmax ([2]; Sprague-Dawley, rat, plasma, po, 1.5 g/kg/day, CCl4-intoxicated rats, oral SC alcoholic extract 1.5 g/kg/day for 4 days, plasma, n = 5, read-out: Tmax): 4.2 ± 1.79 h | AUC(0-t) [2, 11]: 5220 ± 1430 ng·h/mL | Cmax [2, 11]: 182 ± 103 ng/mL | half-life [2, 11]: 15.4 ± 2.52 h | CL/F [2, 12]: 54.3 mL/min/kg | MRT last [2, 12]: 16.5 ± 0.94 h | Tmax ([2]; Sprague-Dawley, rat, plasma, po, 1.5 g/kg/day, Control (normal) rats, oral SC alcoholic extract 1.5 g/kg/day for 4 days, plasma, n = 5, read-out: Tmax): 6.4 ± 0.89 h
